Data reported in patent publication US11191820B2, “Method for inducing early T memory response with short peptides anti-tumor vaccine” (OSE IMMUNOTHERAPEUTICS, priority 2015, dated 2021).

Columns and labels:
Assay type in all cases: in vivo, human
central memory T cells [1] = assay: Cultured IFN-γ ELISPOT after 10-day in vitro stimulation of PBMC, phase 1/2 colon cancer trial of OSE-2101; set-up: key to net SFC of vaccine positive CTL responses: —, indicates SFC response did not meet criteria and vaccine response was negative; conditions: for Mean SFC: 10 colon patients
Description: (§1) Clinical study design. Both trials were designed as phase 1/2, open label, multi-center, single dose, multiple administration studies to evaluate the safety and immunogenicity of the OSE-2101 immunotherapy. Patients were treated with 1 ml OSE-2101 every 3 weeks for a total of six doses. Each dose was administered subcutaneously in the same vicinity in the deltoid or upper thigh region, or at a contralateral site if local side-effects were observed. The study duration for each completed patient was 18 weeks. Clinical responses or patient survival were not measured in either phase 1/2 studies.
(§2) Clinical sample processing. Blood or leukapheresis product was obtained from patients at the pre-treatment, the Week 9 and Week 18 time points, 3 weeks after the third and sixth dose of OSE-2101 respectively. Peripheral blood mononuclear cells (PBMC) were isolated from samples within 24 hours of collection using a FICOLL-PAQUE density gradient and cryopreserved in containers designed to ensure optimal freezing (Mr. Frosty, Nalgene). For use, cells were rapidly thawed at 37° C. then transferred to human AB serum-containing medium for work-up.
(§3) Measurement of central T memory cells responses and T effector memory cells. The CTL responses in 16 total patients (10 colon and six NSCLC) were monitored for CTL responses against each epitope and against the wild-type epitope of epitopes analogs. For each patient, the pre-treatment, Week 9 and Week 18 time points were batch-tested in the same experiment to allow pre- versus post-treatment response comparison in the same experiment. Central T memory cells responses were measured using an IFN-γ enzyme-linked immunospot (cultured ELISPOT) assay following in vitro stimulation of PBMC for 10 days with each vaccine epitope. Briefly, PBMC from each time point were stimulated on day 0 with 10 μg/ml of each epitope individually in replicate in 48-well culture plates (2×10^6 PBMC/well). All cultures were fed with rIL-2 (Endogen, Woburn, Mass.; 10 U/ml final concentration) on days 1, 4 and 7. Ten days after initiation of culture, cells were harvested and tested for activity against specific vaccine peptides and corresponding wild-type peptides of vaccine analogs in the T memory ELISPOT assay. Cells were tested in Millipore IP 96-well plates pre-coated with mouse anti-human IFN-γ antibody (Mabtech USA, Cincinnati, Ohio). Five×10^4 cells and 1.25×10^4 cells from each culture were plated in triplicate wells together with 10^5 irradiated autologous PBMC and 10 μg/ml peptide. As a control, CTL were also tested against an irrelevant HLA-A2.1-binding HBV peptide. After 20 hours incubation, T memory ELISPOT plates were developed by performing sequential incubations with biotinylated anti-human IFN-γ antibody (Mabtech USA), Avidin-Peroxidase Complex (APC, Vector Laboratories, Burlingame, Calif.), and 3-amino-9-ethyl carbazole (AEC) substrate (Sigma Aldrich, St. Louis, Mo.). Spot-forming cells (SFC) were enumerated using a computer-assisted image analysis system (Zeiss KS ELISPOT Reader, Carl Zeiss MicroImaging, Thornwood, N.J.). Data is reported as the net SFC per 5×10^4 cells after subtracting spots induced with the irrelevant HBV peptide.

central memory T cells [2] = assay: Cultured IFN-γ ELISPOT after 10-day in vitro stimulation of PBMC, phase 1/2 NSCLC trial of OSE-2101; set-up: key to net SFC of vaccine positive CTL responses: —, indicates SFC response did not meet criteria and vaccine response was negative; conditions: for Mean SFC / No. Positive Responses: 6 NSCLC patients
Description: as §1, §2, §3

central memory T cells [3] = assay: Central memory T cell cultured ELISPOT, phase 2 trial in advanced NSCLC
Description: CTL Immune responses measured though cultured Elispot. The immunogenicity was measured in Phase 2 clinical trial on cryopreserved PBMC from each test sample were thawed in 5% human culture medium (RPMI-1640 medium with 25 mM HEPES, supplemented with 5% human AB serum, 4 mM L-glutamine, 0.5 mM sodium pyruvate, 0.1 mM MEM non-essential amino acids, 100 μg/ml streptomycin, and 100 U/ml penicillin) containing 30 μg/ml DNAase. After centrifugation for 5 minutes at 1200 rpm, the cell pellets were resuspended in 5% human culture medium and washed 2 times. For the central Memory T cell cultured ELISPOT assay, 2×10^6/ml PBMC were placed in replicate wells in a 48-well plates and stimulated for 10 days with 10 μg/ml of each peptide. As a positive control, PBMC were also stimulated with a pool of recall viral peptides. Human rIL2 (10 U/ml) was added to the peptide-stimulated cultures at day 1, day 4 and day 7. After 10 days the stimulated cells were harvested and plated at a concentration of 5×10^4/well. Assay wells also received irradiated autologous PBMC (1×10^5/well) and 10 μg/ml peptide, either the vaccine peptide, irrelevant peptide or positive control peptides. Cells stimulated in vitro with each analog epitope were also tested against the corresponding wild-type epitope.
Data analysis and acceptance criteria. Mean and standard deviation (SD) of spots in replicate wells were calculated in all assays by transferring raw ELISPOT data from each experiment to an Excel-based computer program. Positive vaccine-induced T-cell responses were determined according to the criteria described below.
Acceptance Criteria for peptide-Induced specific T-cell response through central memory T cells: The positive criteria for CTL responses used in the phase 2 trial was identical to the criteria in the phase 1/2 trials which was established prospectively after analyzing the variability of pre-treatment responses in patients against each vaccine epitope and the irrelevant HBV control epitope. A positive peptide-induced CTL/T memory response to a given epitope met all of the following conditions: 1) was greater than 5 SFC above the irrelevant epitope response, 2) was greater than the mean SFC of the irrelevant epitope response, plus 2 SD, and 3) was two-fold greater than the SFC response in the pre-vaccination sample from the same patient, plus 2 SD. The inclusion of “plus two standard deviations” was used to accommodate the assay variability and served to increase the criteria stringency.

## IMIGHLVGV [CEA.691H5 A]
Central memory T cells [1]; Week 9
  Mean SFC: 178.0 SFC per 50,000 cells
Central memory T cells [1]; Week 18
  Mean SFC: 300.6 SFC per 50,000 cells
Central memory T cells [1]; colon patient 551, Week 9
  net SFC of vaccine positive CTL responses: 92.7 SFC per 50,000 cells
Central memory T cells [1]; colon patient 551, Week 18
  net SFC of vaccine positive CTL responses: 68.7 SFC per 50,000 cells
Central memory T cells [1]; colon patient 601, Week 9
  net SFC of vaccine positive CTL responses: 417.3 SFC per 50,000 cells
Central memory T cells [1]; colon patient 601, Week 18
  net SFC of vaccine positive CTL responses: 133.7 SFC per 50,000 cells
Central memory T cells [1]; colon patient 602, Week 9
  net SFC of vaccine positive CTL responses: —
Central memory T cells [1]; colon patient 602, Week 18
  net SFC of vaccine positive CTL responses: —
Central memory T cells [1]; colon patient 603, Week 9
  net SFC of vaccine positive CTL responses: 32.7 SFC per 50,000 cells
Central memory T cells [1]; colon patient 603, Week 18
  net SFC of vaccine positive CTL responses: 8.0 SFC per 50,000 cells
Central memory T cells [1]; colon patient 604, Week 9
  net SFC of vaccine positive CTL responses: 109.3 SFC per 50,000 cells
Central memory T cells [1]; colon patient 604, Week 18
  net SFC of vaccine positive CTL responses: 397.3 SFC per 50,000 cells
Central memory T cells [1]; colon patient 605, Week 9
  net SFC of vaccine positive CTL responses: 65.7 SFC per 50,000 cells
Central memory T cells [1]; colon patient 605, Week 18
  net SFC of vaccine positive CTL responses: —
Central memory T cells [1]; colon patient 606, Week 9
  net SFC of vaccine positive CTL responses: 24.3 SFC per 50,000 cells
Central memory T cells [1]; colon patient 606, Week 18
  net SFC of vaccine positive CTL responses: 45.0 SFC per 50,000 cells
Central memory T cells [1]; colon patient 607, Week 9
  net SFC of vaccine positive CTL responses: 593.3 SFC per 50,000 cells
Central memory T cells [1]; colon patient 607, Week 18
  net SFC of vaccine positive CTL responses: 1648.0 SFC per 50,000 cells
Central memory T cells [1]; colon patient 608, Week 9
  net SFC of vaccine positive CTL responses: —
Central memory T cells [1]; colon patient 608, Week 18
  net SFC of vaccine positive CTL responses: 18.0 SFC per 50,000 cells
Central memory T cells [1]; colon patient 609, Week 9
  net SFC of vaccine positive CTL responses: 89.0 SFC per 50,000 cells
Central memory T cells [1]; colon patient 609, Week 18
  net SFC of vaccine positive CTL responses: 86.0 SFC per 50,000 cells
Central memory T cells [2]; Week 9
  Mean SFC: 84.2 SFC per 50,000 cells
  No. Positive Responses: 2
Central memory T cells [2]; Week 18
  Mean SFC: 132.7 SFC per 50,000 cells
  No. Positive Responses: 3
Central memory T cells [2]; NSCLC patient 201, Week 9
  net SFC of vaccine positive CTL responses: —
Central memory T cells [2]; NSCLC patient 201, Week 18
  net SFC of vaccine positive CTL responses: —
Central memory T cells [2]; NSCLC patient 502, Week 9
  net SFC of vaccine positive CTL responses: —
Central memory T cells [2]; NSCLC patient 502, Week 18
  net SFC of vaccine positive CTL responses: —
Central memory T cells [2]; NSCLC patient 504, Week 9
  net SFC of vaccine positive CTL responses: 42.7 SFC per 50,000 cells
Central memory T cells [2]; NSCLC patient 504, Week 18
  net SFC of vaccine positive CTL responses: 284.0 SFC per 50,000 cells
Central memory T cells [2]; NSCLC patient 505, Week 9
  net SFC of vaccine positive CTL responses: —
Central memory T cells [2]; NSCLC patient 505, Week 18
  net SFC of vaccine positive CTL responses: 45.3 SFC per 50,000 cells
Central memory T cells [2]; NSCLC patient 532, Week 9
  net SFC of vaccine positive CTL responses: 125.7 SFC per 50,000 cells
Central memory T cells [2]; NSCLC patient 532, Week 18
  net SFC of vaccine positive CTL responses: —
Central memory T cells [2]; NSCLC patient 651, Week 9
  net SFC of vaccine positive CTL responses: —
Central memory T cells [2]; NSCLC patient 651, Week 18
  net SFC of vaccine positive CTL responses: 68.7 SFC per 50,000 cells
Central memory T cells [3]; phase 2, month 9
  % of patients with positive CTL/central memory T cell response: 43%
  patients with positive CTL/central memory T cell response / patients tested: 3/7
Central memory T cells [3]; phase 2, month 12
  % of patients with positive CTL/central memory T cell response: 50%
  patients with positive CTL/central memory T cell response / patients tested: 2/4
Central memory T cells [3]; phase 2, week 9
  % of patients with positive CTL/central memory T cell response: 64%
  patients with positive CTL/central memory T cell response / patients tested: 7/11
Central memory T cells [3]; phase 2, week 18
  % of patients with positive CTL/central memory T cell response: 91%
  patients with positive CTL/central memory T cell response / patients tested: 10/11
Central memory T cells [3]; phase 2, week 30
  % of patients with positive CTL/central memory T cell response: 33%
  patients with positive CTL/central memory T cell response / patients tested: 2/6
